Laboratory results from US11724998B2, “PXR agonists and uses thereof for gut barrier dysfunction treatment and prevention” (Albert Einstein College of Medicine, priority 2017, dated 2023).
“And” between values parts separate entries of the source, which are not always exact repeats. Equal values may be shown once. Read-outs that look alike come from different tables or passages of the source. Blank lines part the entries; values can stand above or below the compound they belong to.

How the values were obtained:
[1] = tested on: AhR target genes (CYP1A1 and CYP1A2); type: cell-based, human
Excerpt: (§1) FIG. 2A-2F. […] Histogram, mean±SD.

[2] = tested on: AhR target gene (CYP1A1); type: cell-based, human
Excerpt: as §1
FIG. 7A-7B. Effects of FKK compounds on CYP3A4, MDR1 and CYP1A1 gene expression in LS180 cells. (A) mRNA expression. (B) mRNA expression in wt-PXR transfected cells.

[3] = target: T1, AhR (Homo sapiens, UniProt P35869); test: AhR activation, AZ-AHR (stably co-transfected HepG2) reporter cells; type: cell-based; design: endogenous in cells; host or cells: AZ-AHR (HepG2); conditions: to a much lesser extent than FKK 2 and 9; FIG. 6B
T1 sequence (P35869 11-848): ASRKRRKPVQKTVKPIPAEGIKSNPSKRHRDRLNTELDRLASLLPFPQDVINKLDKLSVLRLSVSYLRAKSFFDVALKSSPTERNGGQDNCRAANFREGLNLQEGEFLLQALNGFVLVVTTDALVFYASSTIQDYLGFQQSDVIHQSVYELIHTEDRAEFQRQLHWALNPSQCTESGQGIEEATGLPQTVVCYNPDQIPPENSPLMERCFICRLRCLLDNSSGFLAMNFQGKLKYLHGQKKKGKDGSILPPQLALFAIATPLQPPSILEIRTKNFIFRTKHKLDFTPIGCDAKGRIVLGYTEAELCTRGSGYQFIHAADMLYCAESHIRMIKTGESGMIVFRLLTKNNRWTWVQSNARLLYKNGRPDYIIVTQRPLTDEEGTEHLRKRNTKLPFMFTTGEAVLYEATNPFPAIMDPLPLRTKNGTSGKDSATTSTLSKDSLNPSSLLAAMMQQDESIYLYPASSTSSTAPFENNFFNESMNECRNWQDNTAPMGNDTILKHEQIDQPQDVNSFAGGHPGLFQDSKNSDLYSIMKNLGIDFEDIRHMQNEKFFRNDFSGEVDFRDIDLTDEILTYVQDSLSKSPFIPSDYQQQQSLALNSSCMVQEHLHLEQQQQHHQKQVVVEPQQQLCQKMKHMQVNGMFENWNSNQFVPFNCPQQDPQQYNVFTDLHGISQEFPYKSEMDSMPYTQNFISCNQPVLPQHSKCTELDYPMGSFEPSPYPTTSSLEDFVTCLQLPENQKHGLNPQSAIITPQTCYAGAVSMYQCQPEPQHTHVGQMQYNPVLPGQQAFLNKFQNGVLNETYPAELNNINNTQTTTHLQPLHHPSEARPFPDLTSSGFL
Method: (§2) FIG. 6A-6E. Activation and inhibition studies with different FKK compounds. (A) PXR activation, LS180 cells (upper), and PXR inhibition, LS180 cells, co-incubation with RIF (lower). (B) AhR activation, AZ-AHR cells (upper), and AhR inhibition, AZ-AHR cells, co-incubation with TCDD (lower). (C) GR activation, AZ-GR cells (upper), and VDR activation, IZ-VDRE cells (lower). (D) TR activation, PZ-GR cells (upper), and AR activation, AIZ-AR cells (lower). (E) Displacement of radiolabeled 9-cis-retinoic acid (RA) by FKK compounds.
(§3) All the synthesized compounds and intermediates were tested for their potential to activate PXR and/or AhR via luciferase assays. The PXR activation assays were performed by co-transfecting full-length expressing human PXR plasmid (91) and p3A4 luciferase reporter (92) in LS180 or Caco-2 cells. AhR activation conducted using stably co-transfected HepG2 reporter cells as previously described (93). […] With the exception of FKK6, there was no significant inhibition of TCDD-induced AhR activation. […] Independent verification of AhR activity of randomly selected compounds—FKK 5, 6 and 9—was performed in a separate laboratory (GHP). Nuclear receptor selectivity was assessed for FKK compounds for GR, ADR, TR and AR using cell-based luciferase assays previously described (93-102). There was no observed biologically significant (>2-fold) induction of nuclear receptor activity (FIG. 6C). RXR ligand displacement is only significant for FKK1 and FKK8 (FIG. 6D).

[4] = tested on: AhR target genes (CYP1A1 and CYP1A2); test: AhR target gene mRNA expression in HepaRG cells (control, AhR-KO)
[5] = target: T2, PXR (Homo sapiens, UniProt O75469); test: PXR activation, HepG2 reporter assay; type: cell-based; design: host or cells: HepG2
T2 sequence (O75469 1-434): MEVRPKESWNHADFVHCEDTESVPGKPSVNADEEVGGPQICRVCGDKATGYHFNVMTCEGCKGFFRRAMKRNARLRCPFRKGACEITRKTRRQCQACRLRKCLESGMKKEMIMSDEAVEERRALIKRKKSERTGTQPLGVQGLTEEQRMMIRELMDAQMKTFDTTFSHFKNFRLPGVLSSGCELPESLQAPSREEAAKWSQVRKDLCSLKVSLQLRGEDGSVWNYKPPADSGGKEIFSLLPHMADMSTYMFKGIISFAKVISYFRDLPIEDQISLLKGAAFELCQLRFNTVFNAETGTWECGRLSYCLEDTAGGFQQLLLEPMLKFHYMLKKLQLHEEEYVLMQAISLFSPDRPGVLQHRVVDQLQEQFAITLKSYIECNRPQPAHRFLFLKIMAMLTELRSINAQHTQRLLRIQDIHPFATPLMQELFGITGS
Excerpt: Two molecules that were readily available (Ryan Scientific: FKK999 & BAS451) were purchased and tested in vitro for PXR activation using a HepG2 reporter assay. […] […]. […] In general, reporter cell lines are efficient ways to screen for PXR ligands (72). In the LS180 intestinal cell line, the PXR activation assay involves a transient transfection system using a specific PXR plasmid and reporter plasmid (CVmax % 11.2+2; CVmid % 10.8+0.1.4; Signal Window 6.2+1.1; Z′ factor 0.51+0.005).

[6] = target: T1, AhR; test: AhR activation by IPA (assay not described); type: cell-based
Excerpt: IPA/Indoles can have weak (˜2 fold) but important effects on the activation of other nuclear receptors (e.g., CAR, LXR) (33). […] Some receptors, specifically CAR and LXR, can act to induce liver steatosis (79, 83-86) and hepatocarcinogenesis (CAR) (80, 84, 87-89) and thus, avoiding excessive activation of these nuclear receptors in the context of PXR activation would be important. […] CDK5 (along with CDK2) are important kinases that phosphorylate and inhibit PXR activation (90).

[7] = tested on: PXR target genes (CYP3A4, MDR1)
[8] = tested on: RXR; test: RXR ligand displacement (radiolabeled 9-cis-retinoic acid); type: binding; conditions: displacement of radiolabeled 9-cis-retinoic acid
Method: as §2
as §3, with “There was no observed biologically significant (>2-fold) induction of nuclear receptor activity (FIG. 6C). RXR ligand displacement is only significant for FKK1 and FKK8 (FIG. 6D).” left out

- induction of CYP1A1 and CYP1A2 [4]: completely diminished
- induction of CYP1A1 and CYP1A2 ([1]; human, hepatocytes): > 100 fold
SMILES: CCOCn1c(C(O)(Cc2cc3ccccc3[nH]2)c2ccncc2)cc2ccccc21 (centres unmarked) [FKK9]

- EC50 [5]: > 50 µM
SMILES: Cc1[nH]c2ccccc2c1C(c1ccccc1)c1c(C)[nH]c2ccccc12 [BAS451]

- induction of CYP1A1 and CYP1A2 [4]: completely diminished
- induction of CYP1A1 and CYP1A2 ([1]; human, hepatocytes): > 100 fold
SMILES: OC(c1ccncc1)(c1cc2ccccc2[nH]1)c1cc2ccccc2[nH]1 [FKK2]

- CYP3A4 mRNA expression [7]: expression is reduced
- RXR ligand displacement [8]: significant
- CYP1A1 mRNA expression [2]: attenuated effects
- CYP1A1 mRNA induction [2]: attenuated effects
SMILES: O=S(=O)(c1ccccc1)n1c(C(O)c2ccncc2)cc2ccccc21 (centres unmarked) [FKK1]

- EC50 ([5]; HepG2 reporter assay, read-out: EC50, PXR activation): 5 µM
- CYP3A4 mRNA expression [7]: expression is reduced
- CYP3A4 mRNA induction ([7]; human): > 2 fold
- CYP1A1 mRNA expression [2]: attenuated effects
- CYP1A1 mRNA induction [2]: attenuated effects
SMILES: Cc1[nH]c2ccccc2c1C(c1c(C)[nH]c2ccccc12)c1c(C)[nH]c2ccccc12 [FKK999, reference compound]
- AhR activation profile [3]: variable degrees of dose-dependent AhR activation

The next lines start with the compound.

SMILES: Clc1cc2c(cc1Cl)Oc1cc(Cl)c(Cl)cc1O2 [TCDD]
- induction of CYP1A1 and CYP1A2 ([1]; primary human hepatocytes, FKK2 and FKK9 in 1 of 4 hepatocytes): > 5000 fold
- CYP1A1 mRNA induction ([2]; PXR transfected LS180 cells, FIG. 7B): 1299.1 fold
- CYP1A1 mRNA expression ([2]; un-transfected LS180 cells, FIG. 7A): 2347 fold and < 3000 fold

SMILES: O=S(=O)(c1ccccc1)n1c(C(O)(Cc2cc3ccccc3[nH]2)c2ccncc2)cc2ccccc21 (centres unmarked) [FKK7]
- AhR activation profile [3]: variable degrees of dose-dependent AhR activation

SMILES: OC(Cc1cc2ccccc2[nH]1)(c1ccncc1)c1cc2ccccc2[nH]1 (centres unmarked) [FKK10]
- AhR activation profile [3]: variable degrees of dose-dependent AhR activation

SMILES: CC#CC(O)(c1ccncc1)c1cc2ccccc2n1COCC (centres unmarked) [FKK4]
- AhR activation profile [3]: variable degrees of dose-dependent AhR activation

SMILES: O=C(O)CCc1c[nH]c2ccccc12 [IPA, indole-3-propionic acid, reference compound]
- AhR activation [6]: does not activate AhR

SMILES: CC#CC(O)(c1ccncc1)c1cc2ccccc2n1S(=O)(=O)c1ccccc1 (centres unmarked) [FKK3]
- AhR activation profile [3]: variable degrees of dose-dependent AhR activation
